Data as given in US20230416262A1, “TRPML MODULATORS” (Casma Therapeutics, Inc., priority 2020, published 2023).
pEC50: −log10 of the molar value.

Tests used:
[1] = tested on: THP-1 cells; assay: Lamp1 lysosomal exocytosis assay; type: cell-based; settings: Homo sapiens, 55 min, 55 min incubation, top dose 20 μM
Method in brief: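 THP-1 cells (1e5/well) exposed to a 7-point 3-fold compound series, top final 20 μM, for 55 min at 37°C. Surface Lamp1 then stained with Lamp1-PE on ice in buffer containing 80 μM Dynasore, and read by flow cytometry as PE geometric mean on live, sytox-negative singlets.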

[2] = tested on: TFEB; assay: TFEB nuclear translocation assay; type: cell-based; settings: Homo sapiens; HeLa wt or HeLa TRPML1 KO cells, treated for 2 hrs; ratio of nuclear to ring-region TFEB intensity
Method in brief: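 HeLa wild-type or TRPML1 KO cells treated 2 h with compound at 37 °C, PFA-fixed, immunostained for TFEB (Alexa 488) with Hoechst nuclei. Imaged at ×20, four fields/well. Value is ratio of nuclear to perinuclear-ring TFEB intensity, with nuclei counts.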

Compound	pEC50 [1]	pEC50 [2]
O=S(=O)(c1ccc(C(F)F)cc1)N1CC2(CCN(Cc3ccccc3)CC2)c2ccccc21 [Compound I-168, 1′-benzyl-1-[4-(difluoromethyl)benzenesulfonyl]-1,2-dihydrospiro[indole-3,4′-piperidine]]	≤ 5.30	≥ 5.70
CN(C)S(=O)(=O)c1ccc(S(=O)(=O)N2CC3(CCN(C(=O)OCc4ccccc4)CC3)c3ccccc32)cc1 [Compound I-104]	≥ 6.30	≥ 5.70
CN(Cc1ccccc1)C(=O)C1CCC2(CC1)CN(S(=O)(=O)c1ccc(C(F)F)cc1)c1ccccc12 (centres unmarked) [Compound I-235, N-benzyl-1′-((4-(difluoromethyl)phenyl)sulfonyl)-N-methylspiro[cyclohexane-1,3′-indoline]-4-carboxamide]	≤ 5.30	≥ 5.70
O=S(=O)(c1ccc2c(c1)CCC2)N1CC2(CCCC2)c2ccccc21 [Compound I-67, 1′-((2,3-dihydro-1H-inden-5-yl)sulfonyl)spiro[cyclopentane-1,3′-indoline]]	≤ 5.30	5.10 to 5.70
O=S(=O)(c1ccc(C(F)F)cc1)N1CC2(CCN(Cc3cnccn3)CC2)c2ccccc21 [Compound I-163, 1-[4-(difluoromethyl)benzenesulfonyl]-1′-[(pyrazin-2-yl)methyl]-1,2-dihydrospiro[indole-3,4′-piperidine]]	≤ 5.30	≥ 5.70
CN(C)S(=O)(=O)c1ccc(S(=O)(=O)N2CC3(CCN(C4CCOC4)CC3)c3ccccc32)cc1 (centres unmarked) [Compound I-103, N,N-dimethyl-4-{[1′-(oxolan-3-yl)-1,2-dihydrospiro[indole-3,4′-piperidin]-1-yl]sulfonyl}benzene-1-sulfonamide]	≤ 5.30	5.10 to 5.70
CN(C)S(=N)(=O)c1ccc(S(=O)(=O)N2CC3(CCCCC3)c3ccccc32)cc1 (centres unmarked) [Compound I-129, N,N-dimethyl-4-(spiro[cyclohexane-1,3′-indolin]-1′-ylsulfonyl)benzenesulfonimidamide]	6.00 to 6.29	≥ 5.70
CCOC[C@]1(C)CC[C@]2(CC1)CN(S(=O)(=O)c1ccc(C(F)F)cc1)c1ccccc12 [Compound I-137, (1r,4r)-1′-[4-(difluoromethyl)benzenesulfonyl]-4-(ethoxymethyl)-4-methyl-1′,2′-dihydrospiro[cyclohexane-1,3′-indole]]	≥ 6.30	≥ 5.70

Other lines, results leading:

pEC50 [1]	pEC50 [2]	Compound
≤ 5.30	≤ 5.00	CN(C)S(=O)(=O)c1ccc(S(=O)(=O)N2CC3(CCCC3)n3nccc32)cc1 [Compound I-124, 4-({1′,2′-dihydrospiro[cyclopentane-1,3′-pyrazolo[1,5-a]imidazol]-1′-yl}sulfonyl)-N,N-dimethylbenzene-1-sulfonamide]
≤ 5.30	≥ 5.70	Cc1cnc2c(c1)N(S(=O)(=O)c1ccc(S(=N)(=O)N(C)C)cc1)CC21CCCCC1 (centres unmarked) [Compound I-157, N,N-dimethyl-4-({6′-methyl-1′,2′-dihydrospiro[cyclohexane-1,3′-pyrrolo[3,2-b]pyridin]-1′-yl}sulfonyl)benzene-1-sulfonoimidamide]
≤ 5.30	5.10 to 5.70	CN(C)S(=O)(=O)c1ccc(S(=O)(=O)N2CC3(CN(CC4CCOCC4)C3)c3ccccc32)cc1 [Compound I-101, N,N-dimethyl-4-({1-[(oxan-4-yl)methyl]-1′,2′-dihydrospiro[azetidine-3,3′-indol]-1′-yl}sulfonyl)benzene-1-sulfonamide]
≥ 6.30	≥ 5.70	O=C(OCc1ccccc1)N1CCC2(CC1)CN(S(=O)(=O)c1ccc(C(F)F)cc1)c1cccc(F)c12 [Compound I-130, benzyl 1-[4-(difluoromethyl)benzenesulfonyl]-4-fluoro-1,2-dihydrospiro[indole-3,4′-piperidine]-1′-carboxylate]
5.30 to 6.00	5.10 to 5.70	O=C(c1ccccc1)N1CCC2(CC1)CN(S(=O)(=O)c1ccc(C(F)F)cc1)c1ccccc12 [Compound I-161, 1′-benzoyl-1-[4-(difluoromethyl)benzenesulfonyl]-1,2-dihydrospiro[indole-3,4′-piperidine]]
